Experimental findings from the OPERA property sets (Mansouri et al. 2018) are described below.

The boiling point is the temperature at which the vapour pressure of the liquid equals the pressure above it. Usually melting point stands for the temperature, or range, at which the solid turns liquid.

SMILES strings stand for the structures.

Conditions in the first data set: not given
Regarding `COC(=O)c1ccc2ccccc2c1`, the boiling point came out at 290 °C and the melting point was 77 °C.

The molecule `CC(=O)Oc1ccc(C2(c3ccc(OC(C)=O)cc3)Oc3ccccc3NC2=O)cc1` yielded a melting point of 190 °C.

For the molecule `O=C(O)c1cc([N+](=O)[O-])ccc1O`, the melting point was 230 °C.

Regarding `CCCCCCCCCCCCCCCCCC(=O)OCCC`, the melting point stood at 28.9 °C.

As for `CCOC(F)(F)C(F)F`, the boiling point was 57.5 °C and the log10 vapour pressure (mmHg) came out at 2.34.

In turn, `CC1CNCC(C)C1` (stereo unspecified) displayed a boiling point of 144 °C.

Consider `O=C[C@H](O)C(O)[C@H](O)CO` (stereo in doubt), for which the log10 vapour pressure (mmHg) was -9.71.

In the case of `CCN1CN(CC)CN(CC)C1`, the boiling point was determined as 208 °C, the melting point turned out to be 70 °C and the ready biodegradability result is listed as “readily biodegradable”.

For the molecule `NC(=O)COC(=O)c1ccccc1`, the melting point was determined as 121 °C.

`O=C(c1ccccc1)C(Cl)c1ccccc1` (stereo unspecified) showed a melting point of 68.5 °C.

Take `CCOP(=S)(OCC)Oc1ccc(S(C)=O)cc1` (stereo unspecified): the log10 Koc (L/kg) came out at 2.52 and the log10 vapour pressure (mmHg) is -4.3.

Consider `C=CCOC(Cn1ccnc1)c1ccc(Cl)cc1Cl` (stereo unspecified), for which the boiling point came out at 347 °C, the log10 Koc (L/kg) was found to be 3.73, the log10 vapour pressure (mmHg) was -5.92 and the melting point worked out at 52.7 °C.

In the case of `CCC1CCCS1` (stereo unspecified), the boiling point turned out to be 157 °C.

Molecule `CCOc1cccc(C(=O)O)c1` gave a melting point of 137 °C.

Take `CC1COC(Cn2cncn2)(c2ccc(Oc3ccc(Cl)cc3)cc2Cl)O1` (stereo unspecified): the log10 vapour pressure (mmHg) was -9.6 and the melting point came to 76 °C.

As to `C=C(C)C(=O)OCCN(CC)CC`, the ready biodegradability entry was “readily biodegradable”.

`CCC(C)CS` (stereo unspecified) returned a boiling point of 116 °C and a log10 vapour pressure (mmHg) of 1.3.

Consider `COc1ccc2c(c1OC)C(=O)OC2`, for which the melting point turned out to be 102 °C.

For the molecule `CC(C)c1ccccc1O`, the boiling point was determined as 214 °C, the log10 vapour pressure (mmHg) was -1 and the melting point worked out at 15.5 °C.

Consider `FC(Cl)Br` (stereo unspecified), for which the boiling point worked out at 36 °C and the melting point is -115 °C.

`Cn1c(=O)c2[nH]cnc2n(C)c1=O` had a melting point of 273 °C.

Molecule `CN(C)C(=O)N[C@@H]1C[C@@H]2C[C@H]1[C@@H]1CCC[C@H]21` gave a melting point of 177 °C.

As to `C=COCCOCCOC=C`, the boiling point came to 198 °C and the log10 vapour pressure (mmHg) is -1.64.

With `C1CN2CCC1CC2`, the log10 vapour pressure (mmHg) worked out at 0.282 and the melting point stood at 158 °C.

Turning to `CC(=O)Nc1c(I)c(NC(C)=O)c(I)c(C(=O)[O-])c1I.[Na+]`, the melting point was found to be 261 °C.

`O=[N+]([O-])OCC(CCl)O[N+](=O)[O-]` (stereo unspecified) displayed a boiling point of 192 °C.

With `FCC(F)(F)OC(F)F`, the boiling point amounted to 43 °C and the log10 vapour pressure (mmHg) turned out to be 2.57.

Regarding `COc1ccc(C#N)cc1`, the boiling point was found to be 256 °C and the melting point was 61.5 °C.

`CCCOC(=O)c1ccoc1` had a boiling point of 211 °C.

Molecule `Oc1cc(Cl)cc(Br)c1` displayed a boiling point of 256 °C and a melting point of 70 °C.

On to `C[Si](C)(C)c1ccccc1`, for which the boiling point was found to be 170 °C.

Regarding `COc1ccc([C@@H]2CC(=O)c3c(O)cc(O)cc3O2)cc1O`, the melting point was 228 °C.

The molecule `CC1=CC(=O)[C@H]2C[C@@H]1C2(C)C` returned a boiling point of 228 °C.

Take `CC(C)OC(=O)Nc1ccccc1`: the log10 Koc (L/kg) turned out to be 1.83, the log10 vapour pressure (mmHg) was -3.85 and the melting point stood at 87.3 °C.

As for `CCCC(C(=O)OCC)C(=O)OCC`, the boiling point is 221 °C.

Consider `c1ccc(Nc2ccc(Nc3ccccc3)cc2)cc1`, for which the log10 vapour pressure (mmHg) is -8.2 and the ready biodegradability result is “not readily biodegradable”.

In turn, `C1SSCSSS1` displayed a melting point of 60.5 °C.

Turning to `CCC(=O)OC1CCCCC1`, the boiling point is 193 °C.

As to `C=C(C)C1CC1`, the boiling point worked out at 70 °C.

The molecule `CN(C)C(=S)N(C)C` gave a boiling point of 245 °C and a melting point of 79.3 °C.

For `O=C(Cl)OCc1ccccc1`, the boiling point came to 152 °C and the log10 vapour pressure (mmHg) was -2.51.

Take `CCCCS(=O)(=O)CCCC`: the boiling point worked out at 291 °C and the melting point came to 45 °C.

`O=C1C(F)=C(F)C(=O)C(F)=C1F` yielded a melting point of 184 °C.

`CC(C)(O)CCC(C)(C)O` had a boiling point of 214 °C and a melting point of 92 °C.

`CCCCCCCCCCCCN1CCCCCC1=O`: the melting point is -7 °C.

Consider `C=C(C)C(=O)OCCCCOC(=O)C(=C)C`, for which the melting point turned out to be 226 °C.

In the case of `NC(Cc1ccccc1)C(=O)O` (stereo unspecified), the ready biodegradability result was “readily biodegradable”.

Turning to `CCCCCCC(=O)CCCC`, the boiling point was determined as 227 °C and the melting point was 2 °C.

Take `C=CC(=O)OCCO`: the boiling point was determined as 191 °C, the log10 vapour pressure (mmHg) was -1.28 and the ready biodegradability result was “readily biodegradable”.

Turning to `C=CCF`, the boiling point is -3 °C.

Consider `COCC(C)O` (stereo unspecified), for which the boiling point is 119 °C, the log10 Henry constant (atm·m³/mol) was -6.04, the log10 vapour pressure (mmHg) is 1.1 and the melting point is -95 °C. Also, the ready biodegradability result is listed as “readily biodegradable”.

The same data set, now with this note: fish.
`C=CCCCCCCCCC` had a log10 biotransformation half-life (days) of 0.09.

`N#Cc1nn(-c2c(Cl)cc(C(F)(F)F)cc2Cl)c(N)c1S(=O)(=O)C(F)(F)F` had a log10 biotransformation half-life (days) of 1.05.

`c1ccc(Nc2ccc(Nc3ccccc3)cc2)cc1` registered a log10 BCF of 3.12.
